According to patent publication US20230058160A1, “METABOLITE-BASED POLYMERS, MICROPARTICLES, AND NANOPARTICLES FOR IMMUNOTHERAPY AND METHODS OF TREATING A DISEASE OR DISORDER” (priority 2020, published 2023):
Entries after “also recorded” stand apart in the source; their conditions may differ.

What was measured:
[1] = system: YUMM1.1 cells; assay: MTT cell viability assay, YUMM1.1 melanoma cells; format: cell-based, mouse
Protocol: (§1) In order to determine if PFK15 prevents melanoma cell growth in vitro, two different mouse melanoma cells were utilized, namely YUMM1.1 (BrafV600E/wt, Pten−/− Cdkn2−/−MHClHi) and B16F10. Specifically, YUMM1.1 and B16F10 cells were cultured with different concentrations of […], and the percentage cell viability was determined using MTT assay.
as §1, with “if […]” for “if PFK15”, “YUMM1.1” for “YUMM1.1 (BrafV600E/wt, Pten−/− Cdkn2−/−MHClHi)”

[2] = system: bone marrow derived dendritic cells; assay: Dendritic cell activation by flow cytometry (MHCII, CD86, CD11c); format: cell-based, C57BL/6j mice; details: for DC activation (CD86+ and MHCII+CD86+ populations in CD11c+ DCs), inhibitor alone: 200 nM PFK15 or 30 nM CB-839; for concentration that prevented the activation of DCs: 24 hours incubation, MHCII, CD86, CD11c staining
Protocol: In order to test the effect of PFKFB3 inhibition on DC and T cell activation, PFK15 was employed. Specifically, DCs were isolated from bone marrow of C57BL/6j mice using GM-CSF, and incubated with different concentrations of PFK15 (50, 100, 200, 400, 800, 1600 nM) for 24 hours. These cells were then stained for MHCII, CD86 and CD 11c to determine activation profile. It was observed that at 200 nM and higher concentrations of PFK15 prevented the activation of DCs (FIG. 3—200 nM shown as example).
In order to test the effect of glutaminase inhibition on DC activation, bone marrow DCs were isolated from C57BL/6j mice and cultured with different concentrations of CB-839, a clinically validated molecule (0, 15, 30, 60, 120 nM) for 24 hours. These cells were then stained for MHCII, CD86, and CD11c to determine activation profile. It was observed that at 30 nM and higher concentrations of CB-839 prevented the activation of DCs (FIG. 11—30 nM is shown as a representative example).
Specifically, DCs were cultured in the presence of CB-839 with or without PEGS (0.1 mg/mL) and with or without LPS (0.1 μg/mL) for 24 hours. Cells were then stained for MHC-II, CD86 and CD11c and analyzed using flow cytometry.

[3] = system: DCs; assay: Seahorse ECAR/OCR of dendritic cells (glycolysis stress test); format: cell-based, C57BL/6j mice
Protocol: In order to test if F16BP particles can rescue DCs from exhaustion when cultured in the presence of PFK15, ECAR using Seahorse assays was utilized. Specifically, DCs were cultured with either PFK 15 (200 nM), F16BP (0.1 mg/mL) or PFK15+F16BP with or without LPS and ECAR measurements were obtained.
Specifically, immature DCs were obtained from C57BL/6j mice and cultured with PEGS (0.1 mg/mL) with or without CB-839 (30 nM or 240 nM) for 16 hours. After 16 hours of incubation, DCs were incubated in glucose free medium and ECAR and OCR values were recorded using Seahorse extracellular flux (XF) analyzer (glucose addition at 20 min).

[4] = system: B16F10 cells; assay: MTT cell viability assay, B16F10 melanoma cells; format: cell-based, mouse
Protocol: as §1
as §1, with “if […]” for “if PFK15”, “YUMM1.1” for “YUMM1.1 (BrafV600E/wt, Pten−/− Cdkn2−/−MHClHi)”

[5] = system: YUMM1.1 tumors; assay: YUMM1.1 tumor model in mice; format: in vivo
Protocol: In order to determine if the injection of F16BP particles in vivo can lead to longer survival in mice, study design shown in FIG. 7A and FIG. 7B was followed.
In order to test the efficacy of F16BP particles-based vaccines to reduce tumor growth in mice, C57BL/6j mice were utilized. Specifically, tumors were induced by injecting 0.75×10^6 cells in the back of the mice. From day 18 onwards, mice were injected with the F16BP based vaccines injected subcutaneously (0.5 mg/mouse) every 3 days (total 3 treatments—days 21, 24, 27) with PFK15 (5 mg/kg) injected every other day intraperitoneally (FIG. 7A—same study design as survival but mice euthanized day 28 for T cell analyses). Controls included PFK15 injections every alternate day, or no treatment. Mice were then sacrificed on day 26 and the tumors, draining lymph nodes, and non-draining contralateral lymph nodes were harvested.

Q: `O=C(Cc1cccc(OC(F)(F)F)c1)Nc1ccc(CCCCc2nnc(NC(=O)Cc3ccccn3)s2)nn1` [CB-839] was tested. Which IC50 ([1]; Mus musculus, MTT assay, percentage cell viability, read-out: IC50 to prevent proliferation of YUMM1.1 cells) did it give?
A: 3.75 nM

Q: What about the “DC activation (CD86+ and MHCII+CD86+ populations in CD11c+ DCs), inhibitor alone” value [2] of the same compound?
A: significantly reduces activation in DCs

Q: What about the “concentration that prevented the activation of DCs” value [2] of the same compound?
A: ≥ 30 nM

Q: And the “glycolysis and mitochondrial respiration in DCs (ECAR and OCR), CB-839 alone” value ([3]; 30 nM CB-839, 16 hours)?
A: block glycolysis and mitochondrial respiration; also recorded: do not upregulate glycolysis or mitochondrial respiration

Q: Which results are given for `O=C(/C=C/c1ccc2ccccc2n1)c1ccncc1` [PFK15]?
A: killing of YUMM1.1 cells in vitro [1]: able to kill; IC50 of YUMM1.1 melanoma cells using PFK-15 (FIG. 6B) ([1]; MTT assay, n=6): 5000 nM; killing of B16F10 cells in vitro [4]: able to kill; DC activation (CD86+ and MHCII+CD86+ populations in CD11c+ DCs), inhibitor alone [2]: significantly reduces activation in DCs; DC activation (CD86+ and MHCII+CD86+ populations in CD11c+ DCs), inhibitor alone ([2]; listed as PFK-15): downregulated; concentration that prevented the activation of DCs [2]: ≥ 200 nM; ECAR of DCs, PFK15 without LPS ([3]; PFK15 200 nM without LPS): even lower than the no treatment control; tumor burden / tumor growth ([5]; F16BP vaccine 0.5 mg/mouse s.c., PFK15 5 mg/kg i.p., vs PFK15 alone and no treatment): significant improvements in tumor burden; improvement of survival of mice ([5]; PFK15 5 mg/kg intraperitoneally every other day): 15 days
